In patent publication US9247759B2, “Identification of human T2R receptors that respond to bitter compounds that elicit the bitter taste in compositions, and the use thereof in assays to identify compounds that inhibit (block) bitter taste in compositions and use thereof” (SENOMYX, INC., priority 2007, dated 2016):
Like-named read-outs stand apart in the source and are kept apart here.

Experiments:
hT2R14 [1] = biological target: T1, hT2R14 (Homo sapiens (Human), UniProt Q9NYV8); assay: hT2R14 antagonist high-throughput FLIPR assay, stable cell line with G16g44, agonist aristolochic acid; assay type: cell-based; settings: read-out: IC50 on hT2R14 bitter receptor
T1 sequence (Q9NYV8 whole entry): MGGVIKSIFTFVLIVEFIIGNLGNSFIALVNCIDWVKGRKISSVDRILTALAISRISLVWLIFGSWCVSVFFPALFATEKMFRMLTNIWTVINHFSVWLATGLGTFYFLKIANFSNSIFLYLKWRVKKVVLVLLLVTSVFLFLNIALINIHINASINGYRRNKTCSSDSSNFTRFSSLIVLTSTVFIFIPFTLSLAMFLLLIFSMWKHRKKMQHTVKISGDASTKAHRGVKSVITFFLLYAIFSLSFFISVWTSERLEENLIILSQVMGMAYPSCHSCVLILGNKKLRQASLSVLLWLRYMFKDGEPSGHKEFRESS
Procedure, shortened: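 Compounds were co-applied with 3 μM aristolochic acid, a dose set to reach 70-80% of maximal hT2R14 activation. Read-out was FLIPR fluorescence in a stable HEK293 line co-expressing hT2R14 and G16g44.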

hT2R3 = hT2R3 (Homo sapiens (Human), UniProt Q9NYW6); assay: hT2R panel inhibition, transient HEK293 G16g44, agonist Chloroquine pH6.5 50 μM; assay type: cell-based; settings: HEK293, compound at 25 μM
hT2R3, sequence (Q9NYW6 whole entry): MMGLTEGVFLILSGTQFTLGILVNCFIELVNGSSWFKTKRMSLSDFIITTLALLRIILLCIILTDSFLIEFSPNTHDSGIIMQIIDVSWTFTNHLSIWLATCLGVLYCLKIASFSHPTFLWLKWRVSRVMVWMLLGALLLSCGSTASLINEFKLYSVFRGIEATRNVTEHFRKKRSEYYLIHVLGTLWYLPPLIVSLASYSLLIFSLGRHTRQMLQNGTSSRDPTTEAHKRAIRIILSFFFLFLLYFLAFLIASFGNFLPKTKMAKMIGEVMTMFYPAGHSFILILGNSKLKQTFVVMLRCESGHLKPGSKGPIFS
Procedure, shortened: (§1)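 Selectivity screen across 22 hT2Rs, each transfected singly into a G16g44-stable HEK293 background. Agonist dosed at EC80. Inhibition = reduced receptor response in presence of test compound.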

hT2R14 [2] = biological target: T1, hT2R14; assay: hT2R panel inhibition, transient HEK293 G16g44, agonist Aristolochic Acid 2 μM; assay type: cell-based; settings: HEK293, compound at 25 μM
Procedure, shortened: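 Agonist challenge was at EC80, with 0.5 mM andrographolide on hT2R8 and 2 μM aristolochic acid on hT2R14. Inhibition was measured in functional assays in HEK293 cells that stably carry the promiscuous G protein G16g44 and were transiently transfected with the individual receptor.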

hT2R16 = hT2R16 (Homo sapiens (Human), UniProt Q9NYV7); assay: hT2R panel inhibition, transient HEK293 G16g44, agonist Salicin 1 mM; assay type: cell-based; settings: HEK293, compound at 25 μM
hT2R16, sequence (Q9NYV7 whole entry): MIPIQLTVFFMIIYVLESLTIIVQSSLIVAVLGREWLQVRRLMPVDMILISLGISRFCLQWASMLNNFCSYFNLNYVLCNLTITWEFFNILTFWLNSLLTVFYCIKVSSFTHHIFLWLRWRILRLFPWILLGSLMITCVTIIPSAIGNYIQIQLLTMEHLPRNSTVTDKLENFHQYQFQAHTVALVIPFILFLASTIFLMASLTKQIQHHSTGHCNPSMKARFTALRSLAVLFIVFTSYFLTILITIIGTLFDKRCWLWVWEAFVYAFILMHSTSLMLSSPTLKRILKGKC
Procedure, shortened: as §1

hT2R44 = assay: hT2R panel inhibition, transient HEK293 G16g44, agonist Denatonium 0.5 μM; assay type: cell-based, human; settings: compound at 25 μM; for screening result against bitter receptor 44: receptor activated to EC80 with the corresponding agonist
Procedure, shortened: as §1

hT2R61 = hT2R61 (Homo sapiens (Human), UniProt P59537); assay: hT2R panel inhibition, transient HEK293 G16g44, agonist Aristolochic Acid 25 nM; assay type: cell-based; settings: HEK293, compound at 25 μM
hT2R61, sequence (P59537 whole entry): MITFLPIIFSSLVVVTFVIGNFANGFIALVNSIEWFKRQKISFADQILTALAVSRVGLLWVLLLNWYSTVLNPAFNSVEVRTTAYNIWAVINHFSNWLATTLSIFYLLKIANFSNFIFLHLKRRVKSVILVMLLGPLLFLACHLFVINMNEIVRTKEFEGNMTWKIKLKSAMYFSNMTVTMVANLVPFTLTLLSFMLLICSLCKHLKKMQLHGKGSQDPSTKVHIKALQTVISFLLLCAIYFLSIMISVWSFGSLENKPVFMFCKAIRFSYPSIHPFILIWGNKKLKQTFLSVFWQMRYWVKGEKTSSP
Procedure, shortened: as §1

hT2R63 = assay: hT2R panel inhibition, transient HEK293 G16g44, agonist Caffeine 1 mM or Andrographolide 100 μM; assay type: cell-based, human; settings: compound at 25 μM; for screening result against bitter receptor 63: receptor activated to EC80 with the corresponding agonist
Procedure, shortened: as §1

hT2R64 = hT2R64 (Homo sapiens (Human), UniProt P59538); assay: hT2R panel inhibition, transient HEK293 G16g44, agonist Aristolochic Acid 1 μM; assay type: cell-based; settings: HEK293, compound at 25 μM
hT2R64, sequence (P59538 whole entry): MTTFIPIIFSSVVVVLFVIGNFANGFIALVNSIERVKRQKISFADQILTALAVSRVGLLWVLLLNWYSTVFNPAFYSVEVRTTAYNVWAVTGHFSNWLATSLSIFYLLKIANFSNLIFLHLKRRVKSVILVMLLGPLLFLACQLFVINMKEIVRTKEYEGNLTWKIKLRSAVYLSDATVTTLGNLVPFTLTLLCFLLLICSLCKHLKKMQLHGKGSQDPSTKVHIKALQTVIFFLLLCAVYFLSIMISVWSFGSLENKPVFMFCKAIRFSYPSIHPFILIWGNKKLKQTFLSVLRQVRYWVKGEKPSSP
Procedure, shortened: as §1

hT2R71 = hT2R71 (Homo sapiens (Human), UniProt P59536); assay: hT2R panel inhibition, transient HEK293 G16g44, agonist Picric Acid 10 μM; assay type: cell-based; settings: HEK293, compound at 25 μM
hT2R71, sequence (P59536 whole entry): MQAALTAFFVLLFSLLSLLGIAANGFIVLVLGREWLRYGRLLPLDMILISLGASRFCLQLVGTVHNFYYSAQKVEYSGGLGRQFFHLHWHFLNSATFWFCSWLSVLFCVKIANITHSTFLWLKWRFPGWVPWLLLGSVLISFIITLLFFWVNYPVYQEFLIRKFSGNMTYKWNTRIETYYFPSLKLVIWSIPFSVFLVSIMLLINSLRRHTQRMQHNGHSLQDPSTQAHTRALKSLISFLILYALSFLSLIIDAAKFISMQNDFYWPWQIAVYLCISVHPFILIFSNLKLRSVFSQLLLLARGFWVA
Procedure, shortened: as §1

hT2R75 = hT2R75 (Homo sapiens (Human), UniProt P59540); assay: hT2R panel inhibition, transient HEK293 G16g44, agonist Strychnine 1 μM; assay type: cell-based
hT2R75, sequence (P59540 whole entry): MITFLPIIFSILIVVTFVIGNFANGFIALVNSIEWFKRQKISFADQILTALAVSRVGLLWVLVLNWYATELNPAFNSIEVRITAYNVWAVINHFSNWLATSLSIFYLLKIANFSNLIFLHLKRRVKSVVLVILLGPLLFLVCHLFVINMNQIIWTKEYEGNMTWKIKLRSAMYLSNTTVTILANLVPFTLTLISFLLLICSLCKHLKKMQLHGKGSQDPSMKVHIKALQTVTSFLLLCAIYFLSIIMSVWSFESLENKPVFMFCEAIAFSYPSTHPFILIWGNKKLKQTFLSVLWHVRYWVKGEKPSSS
Experimental: (§2) Specifically, in order to evaluate the inhibitory selectivity of the Compound C compound, this compound was tested against 22 human T2Rs which were deorphaned by Senomyx. These receptors and the bitter ligands that activate these human T2Rs are reported in earlier patent applications which are incorporated by reference herein. These 22 human T2Rs are hT2R1, 3, 4, 5, 7, 8, 9, 10, 13, 14, 16, 44, 51, 54, 55, 61, 63, 64, 65, 67, 71 and 75. The amino acid and nucleic acid sequences of all of these T2Rs may be found in these earlier patent applications. These human T2Rs were each individually transiently transfected into HEK293 cells that stably express the promiscuous G protein G16g44 and functional assays were effected using these receptors as disclosed in these same patent applications. […] The ligands were used at EC80 concentration levels. The list of bitter ligands utilized and the tested ligand concentrations are contained in Table 5 of this example.
(§3) Relating to the foregoing, FIG. 5 contains experimental results wherein Compound C was tested with different agonist compounds. The inhibition activity is represented by the reduction of receptor activity in the presence of Compound C. […] These 13 hT2Rs are hT2R3, 7, 10, 14, 16, 44, 51, 55, 61, 63, 64, 65, and 71.

hT2R5 = hT2R5 (Homo sapiens (Human), UniProt Q9NYW4); assay: hT2R panel inhibition, transient HEK293 G16g44, agonist Picoline 10 mM; assay type: cell-based; settings: HEK293, compound at 25 μM; receptor activated to EC80 with the corresponding agonist; read-out: screening result against bitter receptor 5
hT2R5, sequence (Q9NYW4 whole entry): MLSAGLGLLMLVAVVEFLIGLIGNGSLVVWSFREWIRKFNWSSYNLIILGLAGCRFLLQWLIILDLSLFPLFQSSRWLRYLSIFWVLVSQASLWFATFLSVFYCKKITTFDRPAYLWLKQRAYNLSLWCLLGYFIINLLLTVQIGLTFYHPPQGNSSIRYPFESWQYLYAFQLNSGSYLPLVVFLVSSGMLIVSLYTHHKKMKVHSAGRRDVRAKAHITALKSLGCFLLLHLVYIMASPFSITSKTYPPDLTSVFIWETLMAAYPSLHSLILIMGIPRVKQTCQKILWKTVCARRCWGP
Procedure, shortened: as §1

hT2R51 = hT2R51 (Homo sapiens (Human), UniProt P59533); assay: hT2R panel inhibition, transient HEK293 G16g44, agonist Prop 2.5 μM; assay type: cell-based; settings: HEK293, compound at 25 μM; receptor activated to EC80 with the corresponding agonist; read-out: screening result against bitter receptor 51
hT2R51, sequence (P59533 whole entry): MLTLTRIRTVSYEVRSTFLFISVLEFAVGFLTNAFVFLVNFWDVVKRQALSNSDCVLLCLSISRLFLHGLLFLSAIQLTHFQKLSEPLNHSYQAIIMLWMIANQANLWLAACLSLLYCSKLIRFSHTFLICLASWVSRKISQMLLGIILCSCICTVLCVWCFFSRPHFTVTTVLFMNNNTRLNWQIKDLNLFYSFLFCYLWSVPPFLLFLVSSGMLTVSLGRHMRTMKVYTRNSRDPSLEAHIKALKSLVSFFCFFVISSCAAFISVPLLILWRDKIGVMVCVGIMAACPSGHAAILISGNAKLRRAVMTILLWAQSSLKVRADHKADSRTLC
Experimental: as §2, §3

hT2R7 = hT2R7 (Homo sapiens (Human), UniProt Q9NYW3); assay: hT2R panel inhibition, transient HEK293 G16g44, agonist Chloroquine pH6.5 10 mM; assay type: cell-based; settings: HEK293, compound at 25 μM; receptor activated to EC80 with the corresponding agonist; read-out: screening result against bitter receptor 7
hT2R7, sequence (Q9NYW3 whole entry): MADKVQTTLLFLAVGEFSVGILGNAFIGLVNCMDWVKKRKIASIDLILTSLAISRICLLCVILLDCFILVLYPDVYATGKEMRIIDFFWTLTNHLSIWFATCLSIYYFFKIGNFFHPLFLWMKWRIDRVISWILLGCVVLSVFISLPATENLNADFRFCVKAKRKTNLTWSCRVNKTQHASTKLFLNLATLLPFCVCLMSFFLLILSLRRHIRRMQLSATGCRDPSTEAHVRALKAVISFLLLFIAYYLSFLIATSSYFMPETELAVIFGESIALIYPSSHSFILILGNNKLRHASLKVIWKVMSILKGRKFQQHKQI
Procedure, shortened: as §1

hT2R10 = hT2R10 (Homo sapiens (Human), UniProt Q9NYW0); assay: hT2R panel inhibition, transient HEK293 G16g44, agonist Strychnine 50 μM; assay type: cell-based
hT2R10, sequence (Q9NYW0 whole entry): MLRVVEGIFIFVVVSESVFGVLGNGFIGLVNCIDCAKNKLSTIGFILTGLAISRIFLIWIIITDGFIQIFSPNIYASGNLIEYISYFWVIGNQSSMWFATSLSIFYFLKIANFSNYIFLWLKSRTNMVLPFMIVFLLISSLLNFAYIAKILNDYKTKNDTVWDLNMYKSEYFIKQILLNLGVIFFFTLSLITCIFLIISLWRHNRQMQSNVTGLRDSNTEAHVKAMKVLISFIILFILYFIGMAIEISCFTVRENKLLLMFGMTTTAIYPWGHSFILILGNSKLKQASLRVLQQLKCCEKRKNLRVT

hT2R55 = assay: hT2R panel inhibition, transient HEK293 G16g44, agonist Cinchonine 150 μM; assay type: cell-based, human; settings: compound at 25 μM; for screening result against bitter receptor 55: receptor activated to EC80 with the corresponding agonist
Procedure, shortened: as §1

hT2R65 = assay: hT2R panel inhibition, transient HEK293 G16g44, agonist Oleuropein 1 mM; assay type: cell-based, human; settings: compound at 25 μM; for screening result against bitter receptor 65: receptor activated to EC80 with the corresponding agonist
Procedure, shortened: as §1

hT2R67 = assay: hT2R panel inhibition, transient HEK293 G16g44, agonist Andrographolide 5 μM; assay type: cell-based, human; settings: compound at 25 μM; receptor activated to EC80 with the corresponding agonist
Procedure, shortened: as §1

hT2R54 = assay: hT2R panel inhibition, transient HEK293 G16g44, agonist Ranitidine 5 mM; assay type: cell-based, human; settings: compound at 25 μM; receptor activated to EC80 with the corresponding agonist
Experimental: as §2, §3

[3] = receptor activated to EC80 with the corresponding agonist, read-out: screening result against bitter receptor 3
[4] = receptor activated to EC80 with the corresponding agonist, read-out: screening result against bitter receptor 14
[5] = receptor activated to EC80 with the corresponding agonist, read-out: screening result against bitter receptor 16
[6] = receptor activated to EC80 with the corresponding agonist, read-out: screening result against bitter receptor 61
[7] = receptor activated to EC80 with the corresponding agonist, read-out: screening result against bitter receptor 64
[8] = receptor activated to EC80 with the corresponding agonist, read-out: screening result against bitter receptor 71
[9] = HEK293, read-out: screening result against bitter receptor 75, compound at 25 μM, receptor activated to EC80 with the corresponding agonist
[10] = HEK293, read-out: screening result against bitter receptor 10, compound at 25 μM, receptor activated to EC80 with the corresponding agonist
[11] = receptor activated to EC80 with agonist

SMILES	inhibition at 25 µM (hT2R3; [3]) [%]	inhibition at 25 µM (hT2R14 [2]; [4]) [%]	inhibition at 25 µM (hT2R16; [5]) [%]	screening result against bitter receptor 44 (hT2R44)	inhibition at 25 µM (hT2R61; [6]) [%]	screening result against bitter receptor 63 (hT2R63)	inhibition at 25 µM (hT2R64; [7]) [%]	inhibition at 25 µM (hT2R71; [8]) [%]	inhibition at 25 µM (hT2R75; [9]) [%]	inhibition at 25 µM (hT2R5) [%]	inhibition at 25 µM (hT2R51) [%]	inhibition at 25 µM (hT2R10; [10]) [%]	screening result against bitter receptor 55 (hT2R55)	screening result against bitter receptor 65 (hT2R65)	screening result against bitter receptor 67 (hT2R67)	further results
COc1ccccc1CN(Cc1ccc(C(=O)O)cc1)S(=O)(=O)c1ccc(O)cc1 [Example 5-42, 4-((4-hydroxy-N-(2-methoxybenzyl)phenylsulfonamido)methyl)-benzoic acid]	20 to 40	> 80	20 to 40	++ (40% to 60% inhibition = ++)	> 80	++ (40% to 60% inhibition = ++)	40 to 60	40 to 60	20 to 40							IC50 (hT2R14 [1]): 2560 nM
N#Cc1cccc(CN(Cc2ccccc2)S(=O)(=O)c2ccc(C(=O)O)cc2)c1 [Example 5-75, 4-(N-benzyl-N-(3-cyanobenzyl)sulfamoyl)benzoic acid]					20 to 40	+ (20% to 40% inhibition = +)			20 to 40	20 to 40	20 to 40					
COc1ccc(CN(Cc2ccccc2)S(=O)(=O)c2ccc(CCC(=O)O)cc2)cc1 [Example 5-59, 3-(4-(N-benzyl-N-(4-methoxybenzyl)sulfamoyl)phenyl)propanoic acid]					40 to 60	+ (20% to 40% inhibition = +)			20 to 40							
COc1ccc(CN(C(C)c2ccccc2)S(=O)(=O)c2ccc(C(=O)O)cc2)cc1 (stereo not shown) [Example 5-95, 4-(N-(4-methoxybenzyl)-N-(1-phenylethyl)sulfamoyl)benzoic acid]	40 to 60	> 80	40 to 60	+++ (60% to 80% inhibition = +++)	> 80	++++ (80% or greater inhibition = ++++)	60 to 80	40 to 60	20 to 40	20 to 40	20 to 40	20 to 40	++++ (80% or greater inhibition = ++++)	+++ (60% to 80% inhibition = +++)	+ (20% to 40% inhibition = +)	inhibition at 25 µM (hT2R7): 20 to 40%
O=C(O)c1ccc(S(=O)(=O)N(Cc2ccccc2)Cc2cccc(Cl)c2)cc1 [Example 5-84, 4-(N-benzyl-N-(3-chlorobenzyl)sulfamoyl)benzoic acid]	40 to 60	> 80	20 to 40	+ (20% to 40% inhibition = +)	> 80	+++ (60% to 80% inhibition = +++)	20 to 40	20 to 40	20 to 40	20 to 40	60 to 80	20 to 40	+++ (60% to 80% inhibition = +++)	+++ (60% to 80% inhibition = +++)	+ (20% to 40% inhibition = +)	screening result against bitter receptor 54 (hT2R54): ++ (40% to 60% inhibition = ++)
COc1cccc(CN(Cc2ccccc2)S(=O)(=O)c2ccc(C(=O)O)cc2)c1 [Example 5-74, 4-(N-benzyl-N-(3-methoxybenzyl)sulfamoyl)benzoic acid]	20 to 40	> 80	20 to 40	+ (20% to 40% inhibition = +)	> 80	++++ (80% or greater inhibition = ++++)	20 to 40	60 to 80		20 to 40	40 to 60	40 to 60	+++ (60% to 80% inhibition = +++)	++ (40% to 60% inhibition = ++)	+ (20% to 40% inhibition = +)	inhibition at 25 µM (hT2R7): 20 to 40%; screening result against bitter receptor 54 (hT2R54): ++ (40% to 60% inhibition = ++)
COc1ccc(OC)c(/C=C2\SC(=S)N(CCC(=O)O)C2=O)c1 [Example 6-1, (Z)-3-(5-(2,5-dimethoxybenzylidene)-4-oxo-2-thioxothiazolidin-3-yl)propanoic acid]																IC50 (hT2R14 [1]): 2750 nM; inhibition at 25 µM (hT2R3; receptor activated to EC80 with agonist, read-out: inhibition of bitter receptor 3): 20 to 40%; inhibition at 25 µM (hT2R10; HEK293, read-out: inhibition of bitter receptor 10, compound at 25 μM, receptor activated to EC80 with agonist): > 80%; inhibition at 25 µM (hT2R14 [2]; receptor activated to EC80 with agonist, read-out: inhibition of bitter receptor 14): > 80%; inhibition at 25 µM (hT2R16; receptor activated to EC80 with agonist, read-out: inhibition of bitter receptor 16): 20 to 40%; inhibition of bitter receptor 44 (hT2R44; [11]): ++ (40% to 60% inhibition = ++); inhibition of bitter receptor 55 (hT2R55; [11]): + (20% to 40% inhibition = +); inhibition at 25 µM (hT2R61; receptor activated to EC80 with agonist, read-out: inhibition of bitter receptor 61): 40 to 60%; inhibition of bitter receptor 63 (hT2R63; [11]): + (20% to 40% inhibition = +); inhibition at 25 µM (hT2R64; receptor activated to EC80 with agonist, read-out: inhibition of bitter receptor 64): 60 to 80%; inhibition of bitter receptor 65 (hT2R65; [11]): + (20% to 40% inhibition = +); inhibition at 25 µM (hT2R71; receptor activated to EC80 with agonist, read-out: inhibition of bitter receptor 71): 20 to 40%; inhibition at 25 µM (hT2R75; HEK293, read-out: inhibition of bitter receptor 75, compound at 25 μM, receptor activated to EC80 with agonist): 20 to 40%
